Paper PMC5218480 (PLoS ONE, 2017)

Test system: MV-4-11 cells
Experiment: Gene expression microarray analysis (Affymetrix PrimeView) and GSEA
Format: cell-based, human
Set-up: RFU PODN (11730768_x_at) / Fold change /veh PODN (11730768_x_at) / RFU LINC00158 (11744669_a_at) / Fold change /veh LINC00158 (11744669_a_at) / RFU DUSP10 (11751237_a_at) / Fold change /veh DUSP10 (11751237_a_at) / RFU ID3 (11757404_x_at) / Fold change /veh ID3 (11757404_x_at) / RFU PLEKHG5 (11737974_s_at) / Fold change /veh PLEKHG5 (11737974_s_at) / RFU LRRC4B (11730491_at) / Fold change /veh LRRC4B (11730491_at) / RFU GIMAP4 (11747438_a_at) / Fold change /veh GIMAP4 (11747438_a_at) / RFU KRT8 (11758183_x_at) / Fold change /veh KRT8 (11758183_x_at) / RFU CNN1 (11734310_a_at) / Fold change /veh CNN1 (11734310_a_at) / RFU VPS37D (11726825_at) / Fold change /veh VPS37D (11726825_at) / RFU C10orf10 (11716522_x_at) / Fold change /veh C10orf10 (11716522_x_at) / RFU KIR2DL2 /// KIR2DL4 /// KIR2DL5A /// KIR2DL5B /// KIR2DS1 /// KIR2DS2 /// KIR2DS3 /// KIR2DS4 /// KIR3DL3 /// KIR3DL3 /// KIR3DS1 (11738374_at) / Fold change /veh KIR2DL2 /// KIR2DL4 /// KIR2DL5A /// KIR2DL5B /// KIR2DS1 /// KIR2DS2 /// KIR2DS3 /// KIR2DS4 /// KIR3DL3 /// KIR3DL3 /// KIR3DS1 (11738374_at) / RFU C1QL1 (11718748_at) / Fold change /veh C1QL1 (11718748_at) / RFU TMPRSS4 (11747572_a_at) / Fold change /veh TMPRSS4 (11747572_a_at) / RFU HAMP (11756126_x_at) / Fold change /veh HAMP (11756126_x_at) / RFU RNFT2 (11725882_a_at) / Fold change /veh RNFT2 (11725882_a_at) / RFU NR4A2 (11747474_a_at) / Fold change /veh NR4A2 (11747474_a_at) / RFU ABCC12 (11746883_a_at) / Fold change /veh ABCC12 (11746883_a_at) / RFU TMEM136 (11760407_x_at) / Fold change /veh TMEM136 (11760407_x_at) / RFU CLDN22 /// WWC2 (11732394_at) / Fold change /veh CLDN22 /// WWC2 (11732394_at) / RFU HLA-DPB1 (11760878_x_at) / Fold change /veh HLA-DPB1 (11760878_x_at) / RFU SPINT1 (11716480_a_at) / Fold change /veh SPINT1 (11716480_a_at) / RFU GAP43 (11754022_s_at) / Fold change /veh GAP43 (11754022_s_at) / RFU A4GNT (11735810_at) / Fold change /veh A4GNT (11735810_at) / RFU PRB3 (11715151_x_at) / Fold change /veh PRB3 (11715151_x_at) / RFU TUBB4B (11761932_at) / Fold change /veh TUBB4B (11761932_at) / RFU CAPN14 (11732068_a_at) / Fold change /veh CAPN14 (11732068_a_at) / RFU TMCC2 (11721928_a_at) / Fold change /veh TMCC2 (11721928_a_at) / RFU IRGQ (11745062_a_at) / Fold change /veh IRGQ (11745062_a_at) / RFU FAM174B (11720279_a_at) / Fold change /veh FAM174B (11720279_a_at) / RFU TMPRSS4 (11748680_a_at) / Fold change /veh TMPRSS4 (11748680_a_at) / RFU FAM212B (11763350_a_at) / Fold change /veh FAM212B (11763350_a_at) / RFU PLEKHG5 (11743358_a_at) / Fold change /veh PLEKHG5 (11743358_a_at) / RFU ZSCAN30 (11745921_a_at) / Fold change /veh ZSCAN30 (11745921_a_at) / RFU CMKLR1 (11741424_a_at) / Fold change /veh CMKLR1 (11741424_a_at) / RFU LOC101060620 /// MAPK8IP1 (11723275_at) / Fold change /veh LOC101060620 /// MAPK8IP1 (11723275_at) / RFU SPTSSB (11747773_x_at) / Fold change /veh SPTSSB (11747773_x_at) / RFU PRSS12 (11739890_at) / Fold change /veh PRSS12 (11739890_at) / RFU BIN1 (11741810_x_at) / Fold change /veh BIN1 (11741810_x_at) / RFU WNT11 (11732464_a_at) / Fold change /veh WNT11 (11732464_a_at) / RFU C10orf10 (11716521_a_at) / Fold change /veh C10orf10 (11716521_a_at) / RFU C5orf56 (11738089_at) / Fold change /veh C5orf56 (11738089_at) / RFU CYB561 (11721691_x_at) / Fold change /veh CYB561 (11721691_x_at) / RFU ANKRD19P (11752326_a_at) / Fold change /veh ANKRD19P (11752326_a_at) / RFU OR2T12 /// OR2T33 /// OR2T8 (11738714_s_at) / Fold change /veh OR2T12 /// OR2T33 /// OR2T8 (11738714_s_at) / RFU VCAN (11748164_a_at) / Fold change /veh VCAN (11748164_a_at) / RFU JSRP1 (11732532_at) / Fold change /veh JSRP1 (11732532_at) / RFU KRTAP10-11 (11738290_x_at) / Fold change /veh KRTAP10-11 (11738290_x_at) / RFU MYO3A (11730013_a_at) / Fold change /veh MYO3A (11730013_a_at) / RFU EBF3 (11725865_a_at) / Fold change /veh EBF3 (11725865_a_at) / RFU CAMK2N1 (11719241_x_at) / Fold change /veh CAMK2N1 (11719241_x_at) / RFU C5orf56 (11738088_a_at) / Fold change /veh C5orf56 (11738088_a_at) / RFU OLFML3 (11715873_a_at) / Fold change /veh OLFML3 (11715873_a_at) / RFU LOC100653217 /// NTM (11731650_a_at) / Fold change /veh LOC100653217 /// NTM (11731650_a_at) / RFU MAPK11 (11762145_a_at) / Fold change /veh MAPK11 (11762145_a_at) / RFU FIZ1 (11724087_x_at) / Fold change /veh FIZ1 (11724087_x_at) / RFU OASL (11726364_x_at) / Fold change /veh OASL (11726364_x_at) / RFU SOX15 (11748057_x_at) / Fold change /veh SOX15 (11748057_x_at) / RFU CD79A (11719716_a_at) / Fold change /veh CD79A (11719716_a_at) / RFU HIST1H1D (11736915_at) / Fold change /veh HIST1H1D (11736915_at) / RFU CASKIN2 (11723855_a_at) / Fold change /veh CASKIN2 (11723855_a_at) / RFU LOC730098 (11760151_x_at) / Fold change /veh LOC730098 (11760151_x_at) / RFU OR4N2 (11742367_at) / Fold change /veh OR4N2 (11742367_at) / RFU PRRT2 (11749266_a_at) / Fold change /veh PRRT2 (11749266_a_at) / RFU SNX32 (11753110_a_at) / Fold change /veh SNX32 (11753110_a_at) / RFU CDHR5 (11726645_a_at) / Fold change /veh CDHR5 (11726645_a_at) / RFU RCAN1 (11760418_a_at) / Fold change /veh RCAN1 (11760418_a_at) / RFU FAM167A (11723789_a_at) / Fold change /veh FAM167A (11723789_a_at) / RFU FAM26E (11764081_at) / Fold change /veh FAM26E (11764081_at) / RFU ISYNA1 (11749810_s_at) / Fold change /veh ISYNA1 (11749810_s_at) / RFU ACY1 (11761880_at) / Fold change /veh ACY1 (11761880_at) / RFU 11764098_at / Fold change /veh 11764098_at / RFU SAMD14 (11745864_x_at) / Fold change /veh SAMD14 (11745864_x_at) / RFU NPB (11741838_a_at) / Fold change /veh NPB (11741838_a_at) / RFU TMPRSS6 (11731388_a_at) / Fold change /veh TMPRSS6 (11731388_a_at) / RFU KRTAP10-2 (11738614_at) / Fold change /veh KRTAP10-2 (11738614_at) / RFU ARHGAP8 /// PRR5-ARHGAP8 (11727945_x_at) / Fold change /veh ARHGAP8 /// PRR5-ARHGAP8 (11727945_x_at) / RFU KRTAP5-7 /// NADSYN1 (11734609_at) / Fold change /veh KRTAP5-7 /// NADSYN1 (11734609_at) / RFU RASL12 (11751679_a_at) / Fold change /veh RASL12 (11751679_a_at) / RFU CDKN2B (11736163_a_at) / Fold change /veh CDKN2B (11736163_a_at) / RFU PRF1 (11729649_at) / Fold change /veh PRF1 (11729649_at) / RFU, ZNF638 /// ZNF638-IT1 / Fold change vs veh, ZNF638 /// ZNF638-IT1 / RFU, PANK3 / Fold change vs veh, PANK3 / RFU, SH3YL1 / Fold change vs veh, SH3YL1 / RFU, ZEB2 / Fold change vs veh, ZEB2 / RFU, NRIP1 / Fold change vs veh, NRIP1 / RFU, PTTG1IP / Fold change vs veh, PTTG1IP / RFU, CAPN2 / Fold change vs veh, CAPN2 / RFU, MED14 / Fold change vs veh, MED14 / RFU, SNORA58 / Fold change vs veh, SNORA58 / RFU, C1orf63 / Fold change vs veh, C1orf63 / RFU, LRRFIP1 / Fold change vs veh, LRRFIP1 / RFU, NDUFAF7 / Fold change vs veh, NDUFAF7 / RFU, SLC12A2 / Fold change vs veh, SLC12A2 / RFU, IBTK / Fold change vs veh, IBTK / RFU, ESF1 / Fold change vs veh, ESF1 / Fold change vs veh, TMEM50B / RFU, TAOK1 / Fold change vs veh, TAOK1 / RFU, ACBD3 / Fold change vs veh, ACBD3 / RFU, TMA16 / Fold change vs veh, TMA16 / RFU, RWDD3 / Fold change vs veh, RWDD3 / RFU, BCAT1 / Fold change vs veh, BCAT1 / RFU, EDEM3 / Fold change vs veh, EDEM3 / RFU, TMEM33 / Fold change vs veh, TMEM33 / RFU, WDR75 / Fold change vs veh, WDR75 / RFU, AHCTF1 / Fold change vs veh, AHCTF1 / RFU, TFRC / Fold change vs veh, TFRC / RFU, ZDHHC17 / Fold change vs veh, ZDHHC17 / RFU, NOM1 / Fold change vs veh, NOM1 / RFU, ARL8B / Fold change vs veh, ARL8B / RFU, ZBTB11 / Fold change vs veh, ZBTB11 / RFU, TAMM41 / Fold change vs veh, TAMM41 / RFU, KIAA1704 /// LOC100996395 / Fold change vs veh, KIAA1704 /// LOC100996395 / RFU, ING1 / Fold change vs veh, ING1 / RFU, TRMT61B / Fold change vs veh, TRMT61B / RFU, FUBP3 / Fold change vs veh, FUBP3 / RFU, TP53 / Fold change vs veh, TP53 / RFU, TNKS2 / Fold change vs veh, TNKS2 / RFU, ZFP14 / Fold change vs veh, ZFP14 / RFU, ACTR2 / Fold change vs veh, ACTR2 / RFU, PPP3R1 / Fold change vs veh, PPP3R1 / RFU, PIK3R1 / Fold change vs veh, PIK3R1 / RFU, HNRNPA1 / Fold change vs veh, HNRNPA1 / RFU, RNF170 / Fold change vs veh, RNF170 / RFU, ZNF28 / Fold change vs veh, ZNF28 / RFU, RNGTT / Fold change vs veh, RNGTT / RFU, OGT / Fold change vs veh, OGT / RFU, BRD1 / Fold change vs veh, BRD1 / RFU, MARS / Fold change vs veh, MARS / RFU, ZNF655 / Fold change vs veh, ZNF655 / RFU, FAHD1 / Fold change vs veh, FAHD1 / RFU, BDP1 / Fold change vs veh, BDP1 / RFU, LRRCC1 / Fold change vs veh, LRRCC1 / RFU, ARID1A / Fold change vs veh, ARID1A / RFU, ZNF146 / Fold change vs veh, ZNF146 / RFU, ZNF330 / Fold change vs veh, ZNF330 / RFU, GPN3 / Fold change vs veh, GPN3 / RFU, C9orf123 / Fold change vs veh, C9orf123 / RFU, N4BP2L2 / Fold change vs veh, N4BP2L2 / RFU, ARFIP1 / Fold change vs veh, ARFIP1 / RFU, FAM179B / Fold change vs veh, FAM179B / RFU, BCL10 / Fold change vs veh, BCL10 / RFU, UHRF1BP1L / Fold change vs veh, UHRF1BP1L / RFU, BET1 / Fold change vs veh, BET1 / RFU, CNOT2 / Fold change vs veh, CNOT2 / RFU, ZNF268 / Fold change vs veh, ZNF268 / Fold change vs veh, ZNF507 / RFU, DGCR2 / Fold change vs veh, DGCR2 / RFU, WDSUB1 / Fold change vs veh, WDSUB1 / Fold change vs veh, HSP90B1 /// MIR3652 / RFU, ADSS / Fold change vs veh, ADSS / RFU, GK / Fold change vs veh, GK / RFU, ZNF148 / Fold change vs veh, ZNF148 / RFU, TAF9 / Fold change vs veh, TAF9 / RFU, SLC1A5 / Fold change vs veh, SLC1A5 / RFU, SLMO2 / Fold change vs veh, SLMO2 / RFU, ABCC4 / Fold change vs veh, ABCC4 / RFU, LOC101060439 /// RAP1B / Fold change vs veh, LOC101060439 /// RAP1B / RFU, RFX7 / Fold change vs veh, RFX7 / RFU, GTPBP10 / Fold change vs veh, GTPBP10 / RFU, CNEP1R1 / Fold change vs veh, CNEP1R1 / RFU, BIVM-ERCC5 /// ERCC5 / Fold change vs veh, BIVM-ERCC5 /// ERCC5 / RFU, ILF3 / Fold change vs veh, ILF3 / RFU 11762660_at / Fold change /veh 11762660_at / RFU VCAN (11757783_s_at) / Fold change /veh VCAN (11757783_s_at) / RFU DDX43 (11728927_at) / Fold change /veh DDX43 (11728927_at) / RFU KRT8 (11758188_x_at) / Fold change /veh KRT8 (11758188_x_at) / RFU NKD1 (11759106_at) / Fold change /veh NKD1 (11759106_at) / RFU SRD5A1 (11742802_a_at) / Fold change /veh SRD5A1 (11742802_a_at) / RFU TPSAB1 /// TPSB2 (11721975_s_at) / Fold change /veh TPSAB1 /// TPSB2 (11721975_s_at) / RFU GSTM3 (11746129_a_at) / Fold change /veh GSTM3 (11746129_a_at) / RFU IL23R (11737362_x_at) / Fold change /veh IL23R (11737362_x_at) / RFU TMEM51 (11727254_a_at) / Fold change /veh TMEM51 (11727254_a_at) / RFU PIWIL2 (11732686_x_at) / Fold change /veh PIWIL2 (11732686_x_at) / RFU ORM1 (11744905_x_at) / Fold change /veh ORM1 (11744905_x_at) / RFU CCDC152 (11743942_at) / Fold change /veh CCDC152 (11743942_at) / RFU ECM1 (11717891_a_at) / Fold change /veh ECM1 (11717891_a_at) / RFU IL23R (11748794_a_at) / Fold change /veh IL23R (11748794_a_at) / RFU TNFAIP8L3 (11732012_x_at) / Fold change /veh TNFAIP8L3 (11732012_x_at) / RFU MBOAT4 (11741988_at) / Fold change /veh MBOAT4 (11741988_at) / RFU 11764193_at / Fold change /veh 11764193_at / RFU TMEM53 (11763286_at) / Fold change /veh TMEM53 (11763286_at) / RFU MAGEB2 (11727129_at) / Fold change /veh MAGEB2 (11727129_at) / RFU TMEM200A (11744735_a_at) / Fold change /veh TMEM200A (11744735_a_at) / RFU CCDC152 (11751479_a_at) / Fold change /veh CCDC152 (11751479_a_at) / RFU FAM211A (11726209_a_at) / Fold change /veh FAM211A (11726209_a_at) / RFU RGS16 (11746705_a_at) / Fold change /veh RGS16 (11746705_a_at) / RFU VCAN (11755009_s_at) / Fold change /veh VCAN (11755009_s_at) / RFU RHOB (11743442_s_at) / Fold change /veh RHOB (11743442_s_at) / RFU RGS16 (11720943_a_at) / Fold change /veh RGS16 (11720943_a_at) / RFU RGS16 (11720944_at) / Fold change /veh RGS16 (11720944_at) / RFU, VPS4B / Fold change vs veh, VPS4B / RFU, CREB1 / Fold change vs veh, CREB1 / RFU, DNAJC13 / Fold change vs veh, DNAJC13 / RFU, GNAQ / Fold change vs veh, GNAQ / RFU, CDK5R1 / Fold change vs veh, CDK5R1 / RFU, ZRANB3 / Fold change vs veh, ZRANB3 / RFU, CUL4A / Fold change vs veh, CUL4A / RFU, CCNY / Fold change vs veh, CCNY / RFU, UFL1 / Fold change vs veh, UFL1 / RFU, COG3 / Fold change vs veh, COG3 / RFU, DIAPH2 / Fold change vs veh, DIAPH2 / RFU, SKA2 / Fold change vs veh, SKA2 / RFU, AFF3 / Fold change vs veh, AFF3 / RFU, LMF1 / Fold change vs veh, LMF1 / RFU, IPO11 / Fold change vs veh, IPO11 / RFU, DFFB / Fold change vs veh, DFFB / RFU, FOXP1 / Fold change vs veh, FOXP1 / RFU, CARD8 / Fold change vs veh, CARD8 / RFU, STRN3 / Fold change vs veh, STRN3 / RFU, ADK / Fold change vs veh, ADK / RFU, RASSF2 / Fold change vs veh, RASSF2 / RFU, WIPF1 / Fold change vs veh, WIPF1 / RFU, LARP1B / Fold change vs veh, LARP1B / RFU, RASA1 / Fold change vs veh, RASA1 / RFU, RB1 / Fold change vs veh, RB1 / RFU, PPFIA1 / Fold change vs veh, PPFIA1 / RFU, MAT2A / Fold change vs veh, MAT2A / RFU, CCT5 / Fold change vs veh, CCT5 / RFU, WDR92 / Fold change vs veh, WDR92 / RFU, CUX1 / Fold change vs veh, CUX1 / RFU, TTC7A / Fold change vs veh, TTC7A / RFU, TMEM135 / Fold change vs veh, TMEM135 / RFU, DEPTOR / Fold change vs veh, DEPTOR / RFU, CPM / Fold change vs veh, CPM / RFU, DNAJB6 / Fold change vs veh, DNAJB6 / RFU, CACNA2D3 / Fold change vs veh, CACNA2D3 / RFU, DTX4 / Fold change vs veh, DTX4 / RFU, TFCP2 / Fold change vs veh, TFCP2 / RFU, GMCL1 /// GMCL1P1 / Fold change vs veh, GMCL1 /// GMCL1P1 / RFU, AEBP2 / Fold change vs veh, AEBP2 / RFU, SNHG1 /// SNORD22 /// SNORD25 /// SNORD26 /// SNORD27 /// SNORD28 /// SNORD29 /// SNORD31 / Fold change vs veh, SNHG1 /// SNORD22 /// SNORD25 /// SNORD26 /// SNORD27 /// SNORD28 /// SNORD29 /// SNORD31 / Fold change (Aza/veh), C12orf56 (ProbeSet 11735607_a_at) / Fold change (ACY-1035/veh), C12orf56 (ProbeSet 11735607_a_at) / Fold change (Aza/veh), FGFR1OP (ProbeSet 11751329_s_at) / Fold change (ACY-1035/veh), FGFR1OP (ProbeSet 11751329_s_at) / Fold change (Aza/veh), VPS36 (ProbeSet 11739960_a_at) / Fold change (ACY-1035/veh), VPS36 (ProbeSet 11739960_a_at) / RFU SYPL1 (11715823_x_at) / Fold change /veh SYPL1 (11715823_x_at) / RFU IGFBP7 (11715501_s_at) / Fold change /veh IGFBP7 (11715501_s_at) / RFU REEP3 (11722064_at) / Fold change /veh REEP3 (11722064_at) / RFU IGLL1 (11728026_x_at) / Fold change /veh IGLL1 (11728026_x_at): dose or concentration left out as unconfirmed
Conditions: ProbeSet 11743882_a_at; LIST D

Compound: Nc1ccc(-c2cccs2)cc1NC(=O)c1ccc2c(c1)cc(C1CC1)n2CCN1CCOCC1 [ACY-1035]
- RFU, STRN3: 114.91 RFU
